Laboratory results: US11091510B2, “Crystal characteristics, preparation processes and anticancer applications of 17beta-neriifolin crystal forms” (EnKang Pharmaceuticals (Guangzhou), Ltd., priority 2017, dated 2021)

Tested on: Human gastric cancer cells MGC-803
Assay: In vivo efficacy test of 17bNF Crystal Form 0 and Form II, MGC-803 xenograft in nude mice
Conditions: oral, once a day, six times every week until the 15th day; start at average tumor volume 1450 mm^3; FIG. 42A-C
Protocol: Human gastric cancer cells MGC-803 were subcutaneously planted into the armpit of nude mice. The test drugs 17bNF-0 and 17bNF-II were separately administrated orally when the average tumor volume reached 1450 mm^3. Drugs were given once a day, six times every week until the 15th day. CMC (drug-carrier; 0.5%) was used as the blank control. Tumor volumes were measured once about every three days (FIG. 42A), and the nude mice were photographed on the 22th day (FIG. 42B), and the nude mice were sacrificed on the 22th day. The tumors were dissected out from the nude mice and photographed (FIG. 42C).

Question: For `COC1C(O)[C@H](O[C@H]2CC[C@@]3(C)[C@H](CC[C@@H]4[C@@H]3CC[C@]3(C)[C@@H](C5=CC(=O)OC5)CC[C@]43O)C2)OC(C)[C@@H]1O` (stereo partly drawn) [17bNF-0, (3β, 5β)-3-[(6-deoxy-3-O-methyl-α-L-glucopyranosyl)oxy]-14-hydroxycard-20(22)-enolide], which “anticancer activities in nude mice (tumor volume)” value is on record?
Answer: very high anticancer activities
